What was measured:
[1] = test system: immunoadhesin-expressing CHO cells; assay: 3 L fed-batch bioreactor culture of immunoadhesin-expressing CHO cells: N-glycan (HILIC-UPLC), TSA and ProG titer; type: cell-based, Chinese hamster
Method: FIG. 5A and FIG. 5B. […] Copper (II) sulfate was delivered as part of the 5×-concentrated DMEM/F12 feed media at a concentration of 1 mM in the feed media. The Day 14 final concentration of CuSO4 in the culture was 0.25 mM, due to 25% feeding. In the CuSO4, glucosamine, and galactose combination conditions, copper (II) sulfate was delivered as part of the 5×-concentrated DMEM/F12 feed media at a concentration of 1 mM in the feed media. The Day 14 final concentration of CuSO4 in the culture was 0.22 mM, due to 22% feeding. Glucosamine was delivered as two 10 mM boli, each on Day 6 and Day 8. Galactose was delivered as part of the 5×-concentrated DMEM/F12 feed media from Day 6-14 at a concentration of 20 g/L in the feed. The Day 14 final concentration of galactose was 2.4 g/L, due to 12% feeding from Day 6-14. In the CuSO4 and hypoxanthine condition, copper (II) sulfate and hypoxanthine were delivered as part of the 5×-concentrated DMEM/F12 feed media at a concentration of 1 mM and 3 mM, respectively, in the feed media. The Day 14 final concentrations of CuSO4 and hypoxanthine in the culture were 0.23 mM and 0.7 mM, due to 23% feeding.
Bioreactor culture conditions: Fed batch cultures were performed in 5 L glass Applikon vessels using Finesse TruBio DV controllers (Finesse Solutions, San Jose, Calif.) with an initial working volume between 2-2.5 L. Bioreactors were seeded at constant seed density of 4×10^5 cells/ml. Concentrated feed medium was delivered on days 3, 5, and every day or every other day following through harvest. Temperature was maintained at 35° C. or 36° C. and pH was controlled at 7.1+/−0.2 by the addition of either 1 M sodium carbonate or carbon dioxide. Dissolved oxygen was maintained at 30%-40% by air and oxygen sparge using a drilled hole sparger. Agitation was maintained between 200-400 RPM throughout the culture to limit total gas flow, while an overlay was maintained between 0.005 and 0.04 vvm.
(§1) Offline analysis: Samples were taken on most days and analyzed with a variety of equipment. Cell density and viability were measured using the standard technique of trypan blue exclusion using a Cedex (Roche Innovatis AG, Germany). Cell viability and growth rate of the various cultures were measured during the culture time course at specific days post-inoculation.
(§2) Copper (II) sulfate, hypoxanthine, guanine, glucosamine, and galactose were delivered to two different immunoadhesin-expressing CHO cell cultures either as part of the feed media or as boli from distinct stock solutions. The typical culture process is a 14-day process that consists of a growth phase from Day 0 to Day 6 at 37° C. and a protein production phase from Day 6 to Day 14 at 30° C.

[2] = test system: immunoadhesin-expressing CHO cells; assay: Fed-batch shake flask culture of immunoadhesin-expressing CHO cells: N-glycan (HILIC-UPLC) and ProG titer; type: cell-based, Chinese hamster; conditions: for Titer: Day 14 harvest; for % afucose / % charged / % galactosylation: fed-batch shake flask; for % afucose levels: addition to fed-batch shake flask cultures
Method: FIG. 3A and FIG. 3B. Effect of hypoxanthine and guanine on the growth (FIG. 3A) and viability (FIG. 3B) of fed-batch shake flask cultures of immunoadhesin-expressing CHO cells. Copper (II) sulfate was delivered as part of the 5×-concentrated DMEM/F12 feed media at a concentration of 1 mM in the feed media. The Day 14 final concentration of CuSO4 in the culture was 0.2 mM due to 20% feeding. Hypoxanthine was delivered as a 1 mM bolus from a 200 mM stock solution on Day 6 after the temperature shift. Guanine was delivered as a 0.2 mM bolus from a 100 mM stock solution on Day 6 after the temperature shift.
FIG. 4A and FIG. 4B. Effect of copper (II) sulfate on the growth (FIG. 4A) and viability (FIG. 4B) of fed-batch shake flask cultures of immunoadhesin-expressing CHO cells. Copper (II) sulfate was delivered as part of the 5×-concentrated DMEM/F12 feed media at a concentration of 1 mM in the feed media. The Day 14 final concentration of CuSO4 in the culture was 0.2 mM, due to 20% feeding. Alternatively, copper (II) sulfate was delivered as 0.2 mM and 0.5 mM boli on Day 6 from a stock solution.
Cell culture methods: Cells were thawed and maintained as in a previous report (Kshirsagar, et al. 2012 Biotechnol Bioeng, Huang, et al. Biotechnology Progress 26(5):1400-1410 (2010)). Basal medium for thaw and passing was the same as in previous reports (Kshirsagar/Huang). Briefly, cells were thawed and maintained in 3 L shake flasks (Corning Life Sciences, Corning, N.Y.) with 1 L working volumes and were passaged every 2-3 days. For maintenance cultures the incubator was controlled at 37° C. and 5% CO2. […]
as §2

CHO-043 cells = assay: CHO-043 fed-batch shake flask culture: N-glycan (HILIC-UPLC), sialylation and ProG titer of the expressed immunoadhesin; type: cell-based, Chinese hamster
Method: FIG. 1A and FIG. 1B. Effect of glucosamine and galactose on the growth (FIG. 1A) and viability (FIG. 1B) of fed-batch shake flask cultures. Glucosamine was delivered as two 10 mM boli, each on Day 2 and Day 4 in both the glucosamine alone condition and the glucosamine/galactose combination condition. […] The Day 14 final concentration of galactose was 6 g/L, due to 30% feeding. Cell line: The cell line used in this study produced a growth factor receptor immunoadhesin polypeptide. The cell line was constructed using DG44 adapted to grow in serum-free medium (Prentice, 2007). The cell line DUXB11 was also used in this study. Cell culture methods: Cells were thawed and maintained as in a previous report ([…] al. 2012 Biotechnol Bioeng, Huang, et al. Biotechnology Progress 26(5):1400-1410 (2010)). Basal medium for thaw and passing was the same as in previous reports ([…]). Briefly, cells were thawed and maintained in 3 L shake flasks (Corning Life Sciences, Corning, N.Y.) with 1 L working volumes and were passaged every 2-3 days. For maintenance cultures the incubator was controlled at 37° C. and 5% CO2. Offline analysis: Samples were taken on most days and analyzed with a variety of equipment. Cell density and viability were measured using the standard technique of trypan blue exclusion using a Cedex (Roche Innovatis AG, Germany). Cell viability and growth rate of the various cultures were measured during the culture time course at specific days post-inoculation. […] The typical culture process is a 14-day process that consists of a growth phase from Day 0 to Day 6 at 37° C. and a protein production phase from Day 6 to Day 14 at 30° C. [table]

CHO-602 = CHO-602 fed-batch shake flask culture: N-glycan (HILIC-UPLC), sialylation and ProG titer; type: cell-based, Chinese hamster; conditions: for % NGNA / % afucose / TSA (mol/chain): Day 12, GlcN 10 mM bolus D6, combination: plus galactose 20 g/L in feed (4 g/L final)
Method: FIG. 2A and FIG. 2B. Effect of glucosamine and galactose on the growth (FIG. 2A) and viability (FIG. 2B) of fed-batch shake flask cultures of immunoadhesin-expressing CHO cells. Glucosamine was delivered as 10 mM boli on Day 6 for the 10 mM conditions and again on Day 8 for the 20 mM condition. In the glucosamine and galactose combination conditions, galactose was delivered as part of the 5×-concentrated DMEM/F12 feed media at a concentration of 20 g/L in the feed. The Day 14 final concentration of galactose was 4 g/L, due to 20% feeding.
FIG. 6A and FIG. 6B. Effect of copper (II) sulfate and Hypoxanthine-Thymidine (HT) supplement on the growth (FIG. 6A) and viability (FIG. 6B) of immunoadhesin-expressing CHO cells in fed-batch shake flasks. […] Copper (II) sulfate, hypoxanthine, and thymidine were delivered as part of the 5×-concentrated DMEM/F12 feed media at a concentration of 1 mM, 1 mM, and 0.16 mM respectively in the feed media for the HT Low condition and 1 mM, 3 mM, and 0.5 mM respectively in the feed media for the HT High condition. The Day 14 final concentration of CuSO4, hypoxanthine, and thymidine in the culture was 0.30 mM, 0.30 mM, and 0.05 mM respectively for the HT Low condition and 0.30 mM, 1 mM, and 0.16 mM respectively for the HT High condition due to 30% feeding.
Cell culture methods: Cells were thawed and maintained as in a previous report (Kshirsagar, et al. 2012 Biotechnol Bioeng, Huang, et al. Biotechnology Progress 26(5):1400-1410 (2010)). Basal medium for thaw and passing was the same as in previous reports (Kshirsagar/Huang). Briefly, cells were thawed and maintained in 3 L shake flasks (Corning Life Sciences, Corning, N.Y.) with 1 L working volumes and were passaged every 2-3 days. For maintenance cultures the incubator was controlled at 37° C. and 5% CO2.
as §1, §2

FcγRIIIa = assay: % FcγRIIIa binding of purified product relative to Enbrel innovator material; conditions: for % FcγRIIIa: Day 14 product, ProA and HIC purified, relative to Enbrel innovator material, hypoxanthine 1 mM or guanine 0.2 mM bolus D6; for levels of FcγRIIIa binding: addition to fed-batch shake flask cultures
[3] = Day 14, CuSO4 1 mM in feed (0.25 mM final; 0.22 mM in combination), GlcN two 10 mM boli D6, D8, galactose 2.4 g/L final
[4] = feed supp. w/1 mM CuSO4 (0.2 mM final Day 14), Day 12
[5] = Day 12, GlcN two 10 mM boli D2, D4, combination: plus galactose 20 g/L in feed (6 g/L final)
[6] = Day 12, GlcN two 10 mM boli D2, D4, combination: plus galactose 20 g/L in feed (6 g/L final), listed as glucosamine
[7] = ExptA, ProG, hypoxanthine 1 mM or guanine 0.2 mM bolus D6
[8] = ExptA, Day 14, hypoxanthine 1 mM or guanine 0.2 mM bolus D6
[9] = ExptB, ProG, hypoxanthine 1 mM or guanine 0.2 mM bolus D6
[10] = ExptB, Day 14, hypoxanthine 1 mM or guanine 0.2 mM bolus D6

## O=S(=O)([O-])[O-].[Cu+2] [CuSO4, copper (II) sulfate]
[1]; [3]
  % NGNA: 0.7%
  % afucose: 7.1%
  % charged: 41.9%
  % galact.: 65.4%
  % α-gal: 0.4%
  TSA (mol/chain): 13.5 mol/chain
[1]; Day 14 harvest, CuSO4 1 mM in feed, combination with GlcN two 10 mM boli and galactose 2.4 g/L final
  Titer: 2.0 g/L
[2]; 0.2 mM CuSO4 D6 bolus
  Titer: 1.9 g/L
[2]; 0.2 mM CuSO4 D6 bolus, Day 12
  % afucose: 8.2%
  % charged: 42.1%
  % galactosylation: 70.3%
[2]; 0.5 mM CuSO4 D6 bolus
  Titer: 1.9 g/L
[2]; 0.5 mM CuSO4 D6 bolus, Day 12
  % afucose: 8.2%
  % charged: 42.4%
  % galactosylation: 68.5%
[2]; copper (II) sulfate alone, shake flask
  % afucose, % galactosylation, and % charged levels of N-linked glycosylation: toward values associated with a comparator polypeptide
[2]; feed supp. w/1 mM CuSO4 (0.2 mM final Day 14)
  Titer: 1.8 g/L
[2]; [4]
  % afucose: 8.4%
  % charged: 43.7%
  % galactosylation: 62.7%

## N[C@H]1C(O)O[C@H](CO)[C@@H](O)[C@@H]1O (some centres unmarked) [GlcN, glucosamine]
CHO-043 cells; [5]
  % NGNA: 3.8%
  % afucose: 1.7%
  % α-gal: 2.4%
  TSA (mol/chain): 6.6 mol/chain
CHO-043 cells; [6]
  % α-gal: reduced
  TSA (mol/chain): 6 mol/chain
CHO-043 cells; Day 12 harvest, ProG, GlcN two 10 mM boli D2, D4, combination: plus galactose (6 g/L final)
  Titer: 1.8 g/L
CHO-602
  % NGNA: 1.3%
  % afucose: 8.9%
  TSA (mol/chain): 11.1 mol/chain
CHO-602; listed as glucosamine
  % NGNA: little effect
  % afucose: little effect
  TSA (mol/chain): reduce sialylation
CHO-602; Day 14 harvest, ProG, GlcN 10 mM bolus D6, combination: plus galactose (4 g/L final)
  Titer: 1.4 g/L

## Nc1nc2nc[nH]c2c(=O)[nH]1 [Guanine, guanine]
[2]; [7]
  Titer: 1.5 g/L
[2]; [8]
  % afucose: 10.5%
[2]; [9]
  Titer: 1.6 g/L
[2]; [10]
  % afucose: 10.2%
[2]
  % afucose levels: no change
FcγRIIIa; ExptA
  % FcγRIIIa: 92%
FcγRIIIa; ExptB
  % FcγRIIIa: 121%
FcγRIIIa
  levels of FcγRIIIa binding: within the range of a comparator polypeptide

## O=c1[nH]cnc2nc[nH]c12 [Hypoxanthine, hypoxanthine]
[2]; [7]
  Titer: 1.7 g/L
[2]; [8]
  % afucose: 9.5%
[2]; [9]
  Titer: 1.6 g/L
[2]; [10]
  % afucose: 8.3%
[2]
  % afucose levels: no change
FcγRIIIa; ExptA
  % FcγRIIIa: 85%
FcγRIIIa; ExptB
  % FcγRIIIa: 122%
FcγRIIIa
  levels of FcγRIIIa binding: within the range of a comparator polypeptide
